Measurements published in patent EP0280167A2, “Use of lipophile anthracyclines for the secondary treatment of anthracycline-resistant tumors, composition containing a lipophile anthracycline and preparation thereof” (BEHRINGWERKE Aktiengesellschaft, priority 1987, dated 1988).
Where two headings read alike, the source gives them in different places.

Key:
[1] = test system: resistente L1210 Leukämiezellen; experiment: Adriamycin uptake in adriamycin-resistant L1210 cells with and without a lipophilic anthracycline (HPLC/fluorescence); type: cell-based; conditions: for Adriamycinaufnahme (in % der unbehandelten Kontrolle ohne Zusatz) resistente L1210: 1 h, 37°C, resistant L1210; for Adriamycin-Aufnahme in adriamycinresistente L1210-Leukämiezellen: result in words, no concentration given
Experimental: (§1) Die Züchtung von adriamycin-resistenten L1210 Zellen erfolgte durch regelmäßig wiederholte, einstündige Inkubation von sensitiven L1210 Zellen mit steigenden Konzentrationen an Adriamycin bis ein Resistenzgrad (IC₅₀ resistente L1210/IC₅₀ sensitive L1210) gegenüber Adriamycin von etwa 80 erreicht war.
(§2) Zur Bestimmung der Adriamycinaufnahme wurden sensitive oder resistente Zellen (2 x 10⁵/ml) in dem Zellkulturmedium RPMI 1640 für 1h bei 37°C mit Adriamycin in Gegenwart und Abwesenheit eines lipophilen Anthracyclins inkubiert. Die Zellsuspension (5 ml) wurde danach zentrifugiert (1 min, 2000 g), das Zellpellet zweimal mit kalter phosphat-gepufferter Kochsalzlösung gewaschen und anschließend durch Zugabe von 100 µl ^RTriton X-100, 800 µl DNAse (Sigma, FRG) und 100 µl internem Standard (Daunomycin, 1 µg/ml) lysiert. Adriamycin und interner Standard wurden mit Hilfe von mit C18-Alkylresten derivatisiertem Kieselgel gefüllten Säulen (Bondelut C18, Analytichem) angereichert.
(§3) Nach Aktivierung dieser Säulen mit Methanol und Waschen mit doppelt destilliertem Wasser wurden die Proben auf die Säulen gegeben. Anschließend wurde mit doppelt destilliertem Wasser gewaschen und das gebundene Material mit 2 ml Chloroform/Methanol (2:1; v:v) eluiert. Nach dem Abdampfen des Lösungsmittelgemisches unter einem Stickstoffstrom wurden die Rückstände in jeweils 100 µl eines Gemisches aus 3 Teilen Acetonitril und 7 Teilen 20 mmol/l wässriger Phosphorsäure, pH 3 ("mobile Phase") gelöst. Die Auftrennung der Probenbestandteile erfolgte mit Hilfe der Hochdruckflüssigkeitschromatographie (20 µl Probe) über eine mit Nucleosil C18 (Partikelgrüße 5 µm) gefüllte Säule (12.5 x 0.46 cm).
(§4) Zur Detektion wurde ein Fluoreszenzdetektor bei einer Exitations- bzw. Emissionswellenlänge von 495 bzw. 590 nm verwendet. Die quantitative Analyse von Adriamycin erfolgte mit Hilfe eines Integrators durch Bestimmung der Peakflächen unter Berücksichtigung der wiedergefundenen Menge an internem Standard und Vergleich mit Proben, die bekannte Mengen an Adriamycin enthielten.

[2] = test system: sensitive L1210 Leukämiezellen; experiment: Adriamycin uptake in sensitive L1210 cells with and without a lipophilic anthracycline (HPLC/fluorescence); type: cell-based; conditions: for Adriamycinaufnahme (in % der unbehandelten Kontrolle ohne Zusatz) L1210: 1 h, 37°C, sensitive L1210
Experimental: as §2, §3, §4

physchem = type: physicochemical; conditions: for logD: octanol/tris buffer
Experimental: Bestimmung des Oktanol-Wasser-Verteilungskoeffizienten P
Zu 1 ml einer 2-10 µmol/l Lösung der Anthracycline in oktanol-gesättigtem Tris-Puffer, pH 7, wurde 1 ml puffer-gesättigtes Oktanol gegeben und für etwa 1 h bei Raumtemperatur geschüttelt. Die wässrige Phase wurde anschliessend entnommen und die Substanzkonzentration in einem Fluoreszenzphotometer durch Vergleich mit Proben bekannter Konzentration bestimmt. Die Konzentration in der organischen Phase wurde durch Subtraktion der in der wässrigen Phase gefundenen Konzentration von der gesamten eingesetzten Konzentration ermittelt. Der Verteilungskoeffizient wurde berechnet nach der Formel: [formula]

[3] = test system: nicht resistente L1210 Leukämiezellen; experiment: Proliferation test: cytotoxicity of Adriamycin on non-resistant L1210 cells with a lipophilic anthracycline present; type: cell-based; conditions: influence of the added lipophilic anthracycline; result in words
resistente L1210 Zellen = experiment: Proliferation test: cytotoxicity on adriamycin-resistant L1210 cells; type: cell-based; conditions: resistant line grown by repeated 1 h incubation with rising Adriamycin concentrations
Excerpt: as §1

[4] = pH 7, octanol / Tris buffer pH 7, room temperature, * means greater than, read-out: P (converted)
[5] = pH 7, statement in text, room temperature (20°C) in b7, read-out: Oktanol-Wasser Verteilungskoeffizient P (converted)

SMILES	Adriamycinaufnahme (in % der unbehandelten Kontrolle ohne Zusatz) resistente L1210 ([1]; anthracycline 1 µg/ml) [%]	Adriamycinaufnahme (in % der unbehandelten Kontrolle ohne Zusatz) resistente L1210 ([1]; anthracycline 10 µg/ml) [%]	Adriamycinaufnahme (in % der unbehandelten Kontrolle ohne Zusatz) L1210 ([2]; anthracycline 1 µg/ml) [%]	Adriamycinaufnahme (in % der unbehandelten Kontrolle ohne Zusatz) L1210 ([2]; anthracycline 10 µg/ml) [%]	Adriamycin-Aufnahme in adriamycinresistente L1210-Leukämiezellen [1]	logD (physchem; [4])	logD (physchem; [5])	Oktanol-Wasser Verteilungskoeffizient P (physchem; room temperature (20°C) in b7)	also measured
CCCCCCN(C)[C@H]1C[C@H](O[C@H]2C[C@](O)(CC)[C@H](O)c3c(O)c4c(c(O)c32)C(=O)c2c(O)cccc2C4=O)O[C@@H](C)[C@H]1O [3'-N-Hexyl-3'-N-methyl-7-O-alpha-L-Daunosaminyl-ß-rhodomycinon]	197	197	97	97					
CCCCCN(C)[C@H]1C[C@H](O[C@H]2C[C@](O)(CC)[C@H](O)c3c(O)c4c(c(O)c32)C(=O)c2c(O)cccc2C4=O)O[C@@H](C)[C@H]1O [3'-N-Pentyl-3'-N-methyl-7-O-alpha-L-Daunosaminyl-ß-rhodomycinon]	166	209	87	95					
CC[C@@]1(O)C[C@H](O[C@H]2C[C@H](N(C)C)[C@H](O[C@H]3C[C@H](O)[C@H](O[C@H]4CCC(=O)[C@H](C)O4)[C@H](C)O3)[C@H](C)O2)c2c(cc3c(c2O)C(=O)c2c(O)cccc2C3=O)[C@H]1C(=O)OC [ACM, Aclacinomycin]					Erhöhung	2.28	~2.3		Adriamycin-Aufnahme in sensitive L1210 Zellen ([2]; result in words, no concentration given): nicht durch Aclacinomycin beeinflußt; zytotoxische Wirkung von Adriamycin auf nicht resistente L1210 Leukämiezellen [3]: nur schwach im Sinne einer additiven Wirkung beeinflußt
COc1cccc2c1C(=O)c1c(O)c3c(c(O)c1C2=O)C[C@@](O)(C(C)=O)C[C@@H]3O[C@H]1C[C@H](N)[C@H](O)[C@H](C)O1 [Daunomycin]						0.653	< 1		
COc1cccc2c1C(=O)c1c(O)c3c(c(O)c1C2=O)C[C@@](O)(C(=O)CO)C[C@@H]3O[C@H]1C[C@H](N)[C@H](O)[C@H](C)O1 [Doxorubicin]							< 1		Resistenzgrad (IC₅₀ resistente L1210/IC₅₀ sensitive L1210) (resistente L1210 Zellen): ~80
COc1cccc2c1C(=O)c1c(O)c3c(c(O)c1C2=O)C[C@@](O)(C(=O)CO)C[C@@H]3O[C@H]1C[C@H](N)[C@@H](O)[C@H](C)O1 [Epirubicin]							< 1		
CC[C@@]1(O)C[C@H](O)c2c(O)c3c(c(O)c2[C@H]1C(=O)OC)C(=O)c1cccc(O)c1C3=O [epsilon-Rhodomycinon]						> 3			
CC[C@@]1(O)C[C@H](O)c2c(O)c3c(c(O)c2[C@H]1C(=O)OC)C(=O)c1c(O)ccc(O)c1C3=O [epsilon-iso-Rhodomycinon]	146	144	90	87	vergleichbare			> 100	
CC[C@@]1(O)CCc2c(O)c3c(c(O)c2[C@H]1O)C(=O)c1cccc(O)c1C3=O [gamma-Rhodomycinon]					vergleichbare			> 100	
CC[C@@]1(O)C[C@H](O)c2c(O)c3c(c(O)c2[C@H]1O)C(=O)c1cccc(O)c1C3=O [ß-Rhodomycinon]	116	186	96	96	vergleichbare			> 100	
